Assays:
Aromatase [1] = target: T1, Aromatase (Homo sapiens, UniProt P11511); assay: Inhibition of human aromatase expressed in CHO cells; format: cell-based
T1 sequence (P11511 whole entry): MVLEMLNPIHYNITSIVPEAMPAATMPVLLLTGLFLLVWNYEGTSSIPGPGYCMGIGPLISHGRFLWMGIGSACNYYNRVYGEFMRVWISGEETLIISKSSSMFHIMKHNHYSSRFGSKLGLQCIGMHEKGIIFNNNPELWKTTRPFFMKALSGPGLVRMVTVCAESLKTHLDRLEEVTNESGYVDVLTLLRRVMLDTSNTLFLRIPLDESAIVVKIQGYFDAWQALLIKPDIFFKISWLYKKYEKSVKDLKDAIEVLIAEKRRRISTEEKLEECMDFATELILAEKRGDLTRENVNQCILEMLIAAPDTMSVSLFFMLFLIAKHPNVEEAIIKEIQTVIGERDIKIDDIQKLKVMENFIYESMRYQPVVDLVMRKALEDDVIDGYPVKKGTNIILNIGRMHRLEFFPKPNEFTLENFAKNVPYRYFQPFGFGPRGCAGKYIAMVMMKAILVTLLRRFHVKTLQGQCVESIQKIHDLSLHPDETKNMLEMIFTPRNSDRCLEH

Aromatase [2] = target: T1, Aromatase; assay: Inhibition of human aromatase by fluorometric assay

Structure (SMILES)	Ki (Aromatase [1])	IC50 (Aromatase [2])
O=c1c(-c2ccc(O)cc2)coc2cc(O)ccc12 [DAIDZEIN]	100 µM	
O=c1c(O)c(-c2ccccc2)oc2cc(O)cc(O)c12 [GALANGIN]	100 µM	
O=c1c(-c2ccc(O)cc2)coc2cc(O)cc(O)c12 [GENISTEIN]	100 µM	
O=c1c(O)c(-c2ccc(O)c(O)c2)oc2c(O)c(O)cc(O)c12 [GOSSYPETIN]		11 µM
O=C1C[C@@H](c2ccc(O)cc2)Oc2cc(O)ccc21 [LIQUIRTIGENIN]		0.34 µM
O=c1c(O)c(-c2cc(O)c(O)c(O)c2)oc2cc(O)cc(O)c12 [MYRICETIN]		10 µM

— ChEMBL document CHEMBL1144205, “Screening of herbal constituents for aromatase inhibitory activity” (Bioorg Med Chem, 2008)
